Test results reported in patent US20250134860A1, “NOVEL COMPOUND, AND COMPOSITION FOR PREVENTING, ALLEVIATING OR TREATING BACTERIAL INFLAMMATION AND INFLAMMASOME-MEDIATED DISEASES, COMPRISING SAME AS ACTIVE INGREDIENT” (Quorum Bio Co., Ltd., priority 2022, published 2025).
Several values for one entry are separate records, joined by “and”; a condition that tells them apart may be missing. Equal values may be shown once.

How the values were obtained:
[1] = General symptoms and body weight in the rat micronucleus study; assay type: in vivo
Method: In addition, body weight was measured on the day of administration start and bone marrow collection to confirm presence/absence of changes due to administration of the substance, and the results are shown in Table 4 below.

P. aeruginosa = test: Inhibitory effect on biofilm formation in P. aeruginosa; assay type: cell-based, Pseudomonas aeruginosa; conditions: 0.006, 0.06, 0.6 μg/ml; 48 hours; compared with control (CT)
Method: (§1) The inhibitory effect of the compound of Example 1-2 on biofilm formation in P. aeruginosa (available from the Korean Collection for Oral Microbiology (KCOM)) and A. baumannii (available from the Korea Culture Center of Microorganisms (KCCM)) was confirmed.
(§2) Sterilized cover glass slips (round, 12 mm radius) were placed individually at a bottom of each well of a cell culture plate (24-well plate) using forceps, and the compound of Example 1-2 was diluted in the medium (P. aeruginosa: LB medium, A. baumannii: NB medium) cultured with bacteria so that the final concentrations were 0.006 μg/ml, 0.06 μg/ml, and 0.6 μg/ml.
(§3) The prepared culture medium was dispensed into a cell culture plate in which glass slips were placed, and the respective bacteria were inoculated to a concentration of 2×10^7 cells/ml. […]
(§4) The biofilm in which bacteria cultured for each group were formed on glass slips was stained with 1% crystal violet solution for 15 minutes, and then washed three times with PBS (phosphate buffered saline) solution, and decolorized with acetone-alcohol (20:80, vol/vol). After the decolorizing solution containing crystal violet was put in 200 μl increments in a 96-well microplate for each group, the absorbance (OD590nm) was measured using an absorbance microplate reader (Epoch2, Bio-Tek, USA), and the biofilm formation level was compared.

[2] = Plasma stability in rat plasma (LC-MS/MS); assay type: in vitro ADME; conditions: 37° C., 0, 30, 60, 120, 240 minutes
Method: The compounds of Examples 1-2 and Comparative Example, and the substance used as the positive control (Eucatropine, Loterpresnol) were dissolved in DMSO to prepare a stock solution having a concentration of 10 mM. The stock solution of each test substance was then diluted to prepare 0.2 mM and 1 mM working solutions and used for the test (For the comparative example compound, 70% acetonitrile was used as a solvent, and for the compound of Example 1-2, 50% acetonitrile was used as a solvent).
The positive control and the standard solution of the test substance were placed in tubes containing two types of plasma (human and rat) at concentrations of 1 μM and 5 μM, respectively, and then incubated at 37° C. for a prescribed time (0, 30, 60, 120, 240 minutes) while shaking and mixing. At each time point, the mixture sample was dispensed in 100 μl increments into a cell culture plate (96-well plate) containing 400 μl of quench reagent to terminate the test, After centrifugation (5000×g, 10 min), 100 μl of the supernatant was taken out, mixed with 200 μl of ultrapure water, and the solution was then injected into a LC-MS/MS system to analyze the drug in each time zone. Thereby, the plasma stability of the compounds of Comparative Example and Example 1-2 was evaluated.

A. baumannii = test: Inhibitory effect on biofilm formation in A. baumannii; assay type: cell-based, Acinetobacter baumannii; conditions: 0.006, 0.06, 0.6 μg/ml; 48 hours; compared with control (CT)
Method: as §1, §2, §3, §4

[3] = test system: mouse bone marrow-derived macrophages; test: Cytotoxicity in mouse bone marrow-derived macrophages (MTT); assay type: cell-based; conditions: at a concentration of 16 μM or less (0.5-16 μM tested), 24 hours
Method: Bone marrow was isolated from the femur and tibia of 8-12 week old C57BL/6J mice (available from Daehan Biolink) using a 26 g syringe, and the isolated bone marrow was differentiated into macrophages by culturing a medium containing IMDM media+30% L929 cell supernatant+10% fetal bovine serum+1% pencillin/streptomycin+1% non-essential amino acid+1% sodium pyruvate in a 150TT cell culture plate for 6 days, and used for the experiment.
The differentiated macrophages were seeded in 200 μl increments in a 48-well plate at a concentration of 1×10^6 cell/ml, and stabilized at 37° C. and 5% CO2 for 12 hours. […]
Then, the supernatant of the cultured cells was removed, treated with 200 μl of MTT solution having a concentration of 400 μg/ml, and then reacted at […] and 5% CO2 for 4 hours. Then, the reaction solution was removed, 200 μl of DMSO was added, and the absorbance was measured at 570 nm. At this time, the viability of cells treated with the sample was calculated based on the viability of untreated cells considered as 100%, and is shown in FIG. 6. […]
The supernatant of the cultured cells was then removed, 200 μl of MTT solution having a concentration of 400 μg/ml was added, and then reacted at […] and 5% CO2 for 4 hours. Then, the reaction solution was removed, 200 μl of DMSO was added, and the absorbance was measured at 570 nm. […]

Compound: Cc1ccc(C(=C2c3ccccc3C(=O)N2C)c2ccc(C)cc2)cc1 [Example 1-2, 3-(di-p-tolylmethylene)-2-methylisoindolin-1-one]
- Body weight (g) before 1st dosing ([1]; 500 mg/kg/day S.C., individual animals 1201-1205): 263.4 g
- Body weight (g) before 1st dosing ([1]; 1,000 mg/kg/day S.C., individual animals 1301-1305): 266.3 g and 251.3 g and 272.4 g
- Body weight (g) before 1st dosing, Mean ([1]; 2,000 mg/kg/day S.C., group mean): 266.9 g
- Body weight (g) before 1st dosing ([1]; 2,000 mg/kg/day S.C., individual animals 1401-1405): 266.2 g
- change in body weight compared to the negative control ([1]; all doses (500, 1000, 2000 mg/kg/day S.C.)): did not show a statistically significant change
- clinical signs in rats ([1]; all doses (500, 1000, 2000 mg/kg/day S.C.), observation period): no abnormal clinical signs
- biofilm formation of P. aeruginosa (P. aeruginosa): significantly suppressed in a concentration-dependent manner
- amount of the compound remaining in the plasma [2]: remained stable
- biofilm formation of A. baumannii (A. baumannii): significantly suppressed in a concentration-dependent manner
- cytotoxicity (cell viability, MTT) [3]: did not exhibit cytotoxicity
